Reference: patent US20040024024A1, “Aromatic sulfone hydroxamates and their use as protease inhibitors” (priority 2001, published 2004)

Assays:
[1] = biological target: T1, Human recombinant MMP-1 (Homo sapiens, UniProt P03956); test: In vitro MMP inhibition, Ki determination (fluorogenic substrate II); assay type: biochemical; settings: value in parenthesis
T1 construct: made in house; host or cells: MMP-1-transfected HT-1080 cells (spent media)
T1 sequence (P03956 100-469): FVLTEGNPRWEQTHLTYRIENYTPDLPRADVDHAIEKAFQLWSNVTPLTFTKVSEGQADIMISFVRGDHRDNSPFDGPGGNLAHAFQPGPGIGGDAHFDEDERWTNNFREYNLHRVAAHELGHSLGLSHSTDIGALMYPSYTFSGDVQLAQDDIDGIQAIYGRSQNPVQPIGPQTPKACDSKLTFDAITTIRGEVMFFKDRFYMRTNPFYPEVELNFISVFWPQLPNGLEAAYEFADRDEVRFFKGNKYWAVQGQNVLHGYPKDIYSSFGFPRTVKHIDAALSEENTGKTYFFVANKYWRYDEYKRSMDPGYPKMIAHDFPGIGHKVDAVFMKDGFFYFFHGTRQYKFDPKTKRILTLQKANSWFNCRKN
Outline: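 Activated human recombinant MMP-1 (APMA- or trypsin-activated; proenzyme from transfected HT-1080 cells) incubated 1 hr at room temperature with 4 μM MCA/Dpa fluorogenic substrate II at or below Km in Tris buffer pH 7.5 with CaCl2. Fluorescence ex 330/em 420 nm; Ki from Morrison-equation non-linear regression, uncorrected for substrate.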

[2] = biological target: T2, Human recombinant MMP-13 (Homo sapiens, UniProt P45452); test: In vitro MMP inhibition, IC50 determination (fluorogenic substrate I); assay type: biochemical; settings: value outside parenthesis
T2 construct: made in house; host or cells: baculovirus / insect cells
Outline: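 Fluorescence at 415 nm (excitation 328 nm) reports Gly-Leu cleavage of 4 μM quenched methoxycoumarin peptide substrate I. Human recombinant MMP-13, activated by trypsin or APMA, was incubated at room temperature with varied inhibitor concentrations in pH 7.5 Tris/NaCl/CaCl2 buffer; IC50 derived from reduced fluorescence.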

SMILES	Ki [1]	IC50 [2]
COCCN1CCC(C(=O)NO)(S(=O)(=O)c2ccc(OCCCc3nc(-c4ccc(CC(C)C)cc4C)no3)cc2)CC1 [Example 128]	> 10000 nM	23.7 nM
NC(=O)c1cccc(-c2noc(CCCOc3ccc(S(=O)(=O)C4(C(=O)NO)CCN(C5CC5)CC4)cc3)n2)c1 [Example 129]	> 10000 nM	1.9 nM
COCCN1CCC(C(=O)NO)(S(=O)(=O)c2ccc(OCCCc3nc(-c4ccc(Br)cc4C)no3)cc2)CC1 [Example 135]	> 10000 nM	2.9 nM
O=C(NO)C1(S(=O)(=O)c2ccc(OCCCc3nc(C4CCCCC4)no3)cc2)CCN(C2CC2)CC1 [Example 137]	> 10000 nM	7 nM
Cc1cc(-c2cccc(CCCOc3ccc(S(=O)(=O)C4(C(=O)NO)CCOCC4)cc3)c2)ccc1Cl [Example 166]	> 10000 nM	136 nM
Cc1cc(-c2cccc(CCCOc3ccc(S(=O)(=O)C4(C(=O)NO)CCOCC4)cc3)c2)ccc1F [Example 168]	> 10000 nM	34.3 nM
O=C(NO)C1(S(=O)(=O)c2ccc(OCCCc3cccc(-c4ccc(Cl)c(Cl)c4)c3)cc2)CCOCC1 [Example 169]	> 10000 nM	70.7 nM
O=C(NO)C1(S(=O)(=O)c2ccc(OCCCc3cccc(-c4ccc(F)c(F)c4)c3)cc2)CCOCC1 [Example 170]	> 10000 nM	3.3 nM
O=C(NO)C1(S(=O)(=O)c2ccc(OCCCc3cccc(-c4ccc(Cl)cc4Cl)c3)cc2)CCOCC1 [Example 171]	> 10000 nM	62.8 nM
O=C(NO)C1(S(=O)(=O)c2ccc(OCCCc3cccc(-c4cc(Cl)cc(Cl)c4)c3)cc2)CCOCC1 [Example 172]	> 10000 nM	377 nM
CCCCc1ccc(-c2noc(CCCOc3ccc(S(=O)(=O)C4(C(=O)NO)CCOCC4)cc3)n2)c(C)c1 [Example 183]	> 10000 nM	21 nM
COCCN1CCC(C(=O)NO)(S(=O)(=O)c2ccc(OCCCc3nc(-c4ccc(C5(c6ccccc6)CC5)cc4)no3)cc2)CC1 [Example 185]	> 10000 nM	12.4 nM
COCCN1CCC(C(=O)NO)(S(=O)(=O)c2ccc(OCCCc3nc(-c4cccc5ccccc45)no3)cc2)CC1 [Example 199]	> 10000 nM	7.4 nM
